Measured values published in patent publication US20030224942A1, “Alkylamino-1,3,5-triazines, processes for their preparation and their use as herbicides and plant growth regulators” (priority 2001, published 2003).

What was measured:
[1] = system: Chenopodium spp., Papaver spp., Polygonum spp., Veronica spp. or Viola spp.; experiment: Post-emergence effect on weeds (greenhouse pot test, visual scoring); assay type: in vivo, monocotyledonous and dicotyledonous weeds; details: treated at three-leaf stage; visual scoring after about 3 to 4 weeks; application rate of 0.5 kg and less of active substance per hectare
[2] = system: Cyperus spp., Echinochloa spp., Digitaria spp., Sagitaria spp. and Scirpus spp.; experiment: Action on harmful plants in rice (paddy rice conditions, visual scoring); assay type: in vivo, typical rice weeds (gramineous and broad-leaved); details: applied into the dammed water, visual scoring about three weeks after application
Outline: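 Rice and typical gramineous and broad-leaved rice weeds grown in closed pots in greenhouse under paddy conditions (2-3 cm water) to three-leaf stage (Echinochloa crus-galli 1.5-leaf), then treated with compounds. Plants kept under optimum greenhouse conditions throughout; effect scored visually.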

SMILES	herbicidal activity post-emergence against harmful plants [1]	herbicidal activity against harmful plants which are typical for rice crops [2]
CC(C)(F)c1nc(N)nc(NC(c2cccc(C3CC3)c2)C2CC2)n1 (stereo not shown) [Product P19.1603]	very good herbicidal activity	very good herbicidal activity
CC#Cc1ccc(CNc2nc(N)nc(C(F)CC)n2)cc1 (stereo not shown) [Product P26.1583]	very good herbicidal activity	very good herbicidal activity
CCC(F)c1nc(N)nc(NC(C)c2ccc(C(F)=C(F)F)cc2)n1 (stereo not shown) [Product P27.1568]	very good herbicidal activity	very good herbicidal activity
CC(C)(F)c1nc(N)nc(NCc2cc(F)c(C(F)=C(F)F)c(F)c2)n1 [Product P16.49]	very good herbicidal activity	very good herbicidal activity
CC#Cc1ccc(C(C)Nc2nc(N)nc(CC)n2)cc1 (stereo not shown) [Product P7.1583]	very good herbicidal activity	very good herbicidal activity
CC(F)C#Cc1ccc(C(C)Nc2nc(N)nc(C(C)(C)F)n2)cc1 (stereo not shown) [Product P17.1598]	very good herbicidal activity	very good herbicidal activity
CC(F)c1nc(N)nc(NC(C)c2ccc(C3CC3)cc2)n1 (stereo not shown) [Product P22.1604]	very good herbicidal activity	very good herbicidal activity
CC#Cc1cc(C(C)Nc2nc(N)nc(CC)n2)ccc1F (stereo not shown) [Product P7.384]	very good herbicidal activity	very good herbicidal activity
Cc1nc(N)nc(NC(c2cc(F)c(C(F)=C(F)F)c(F)c2)C2CC2)n1 (stereo not shown) [Product P4.49]	very good herbicidal activity	very good herbicidal activity
CCC(F)c1nc(N)nc(NC(c2ccc(C(F)=C(F)F)cc2)C2CC2)n1 (stereo not shown) [Product P29.1568]	very good herbicidal activity	very good herbicidal activity
C#Cc1ccc(C(C)Nc2nc(N)nc(C(C)(C)F)n2)cc1F (stereo not shown) [Product P17.1620]	very good herbicidal activity	very good herbicidal activity
CC(F)c1nc(N)nc(NC(C)c2ccc(F)c(C(F)=C(F)F)c2)n1 (stereo not shown) [Product P22.5]	very good herbicidal activity	very good herbicidal activity
CC(C)c1nc(N)nc(NCc2cccc(C(F)=C(F)F)c2)n1 [Product P11.1567]	very good herbicidal activity	very good herbicidal activity
C#Cc1c(F)cc(C(C)Nc2nc(N)nc(C(C)F)n2)cc1F (stereo not shown) [Product P22.352]	very good herbicidal activity	very good herbicidal activity
C#Cc1cc(CNc2nc(N)nc(C(C)(C)F)n2)ccc1F [Product P16.309]	very good herbicidal activity	very good herbicidal activity
CC(F)c1nc(N)nc(NCc2ccc(F)c(C3CC3)c2)n1 (stereo not shown) [Product P21.916]	very good herbicidal activity	very good herbicidal activity
CCC(F)c1nc(N)nc(NC(C)c2ccc(F)c(C(F)=C(F)F)c2)n1 (stereo not shown) [Product P27.5]	very good herbicidal activity	very good herbicidal activity
